Experimental data published in ChEMBL document CHEMBL5725763, “Factor XIa inhibitors” (2018).

biological target: Coagulation factor XI (Homo sapiens, UniProt P03951); assay: Factor XIa Assay: The effectiveness of a compound of the present invention as an inhibitor of Coagulation Factor XIa can be determined using a relevant purified serine protease, and an appropriate synthetic substrate. The rate of hydrolysis of the chromogenic or fluorogenic substrate by the relevant serine protease was measured both in the absence and presence of compounds of the present invention. Assays were conducted at room temperature or at 37° C. […] A decrease in the rate of fluorescence change in the presence of inhibitor is indicative of enzyme inhibition. Such methods are known to one skilled in the art. […] Times required to achieve equilibration between enzyme and inhibitor were determined in control experiments. Initial velocities of product formation in the absence (Vo) or presence of inhibitor (Vi) were measured. Assuming competitive inhibition, and that unity is negligible compared Km/[S], [I]/e, and [I]/e (where [S], [I], and e respectively represent the total concentrations, of substrate, inhibitor and enzyme), the equilibrium constant (Ki) for dissociation of the inhibitor from the enzyme can be obtained from the dependence of Vo/Vi on [I] shown in the following equation. V o /V i=1+[I]/K iThe activities shown by this assay indicate that the compounds of the invention may be therapeutically useful for treating or preventing various cardiovascular and/or cerebrovascular thromboembolic conditions in patients suffering from unstable angina, acute coronary syndrome, refractory angina, myocardial infarction, transient ischemic attacks, atrial fibrillation, stroke such as thrombotic stroke or embolic stroke, venous thrombosis, coronary and cerebral arterial thrombosis, cerebral and pulmonary embolism, atherosclerosis, deep vein thrombosis, disseminated intravascular coagulation, and reocclusion or restenosis of recanalized vessels.
Sequence (P03951 19-387 limits assumed): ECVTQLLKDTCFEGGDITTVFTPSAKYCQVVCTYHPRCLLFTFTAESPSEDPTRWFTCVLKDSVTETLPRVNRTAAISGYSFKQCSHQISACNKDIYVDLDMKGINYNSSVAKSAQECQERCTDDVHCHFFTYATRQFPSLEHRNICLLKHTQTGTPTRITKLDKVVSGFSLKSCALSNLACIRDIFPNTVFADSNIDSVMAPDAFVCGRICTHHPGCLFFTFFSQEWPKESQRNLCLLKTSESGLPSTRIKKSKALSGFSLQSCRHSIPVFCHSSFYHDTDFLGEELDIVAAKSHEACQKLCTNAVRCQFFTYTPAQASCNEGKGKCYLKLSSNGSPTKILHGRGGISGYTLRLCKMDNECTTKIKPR
Sequence (P03951 388-625 limits assumed): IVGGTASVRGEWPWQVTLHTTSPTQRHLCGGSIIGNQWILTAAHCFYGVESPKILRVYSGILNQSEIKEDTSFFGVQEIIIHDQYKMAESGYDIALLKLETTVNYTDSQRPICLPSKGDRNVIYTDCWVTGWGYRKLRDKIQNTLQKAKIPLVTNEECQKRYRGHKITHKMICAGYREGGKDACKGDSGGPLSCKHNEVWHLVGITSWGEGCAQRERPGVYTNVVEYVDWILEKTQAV

For `COC(=O)Nc1ccc2c(N[C@@H](Cc3ccccc3)C(=O)N3CCC[C@@]4(C3)OC(=O)Nc3ccc(Cl)cc34)noc2c1`, which Ki is on record?
The Ki was 0.523 µM.

For `COC(=O)Nc1ccc2c(N[C@@H](Cc3ccccc3)C(=O)N3CCC[C@@]4(C3)OC(=O)Nc3ccc(Cl)cc34)nn(C)c2c1`, which Ki is on record?
Its Ki is 8.2 µM.

With `Nc1ccc(-c2c[nH]c(C(Cc3ccccc3)C(=O)N3CCC[C@@]4(C3)OC(=O)Nc3ccc(Cl)c(F)c34)n2)cn1` (some centres undefined) as the compound, how does the Ki read?
The Ki was 0.353 µM.

With `CC(=O)Nc1ccc(N[C@@H](Cc2ccccc2)C(=O)N2CCC[C@@]3(C2)OC(=O)Nc2ccc(Cl)cc23)cc1` as the compound, how does the Ki read?
Its Ki is 10 µM.
